Laboratory results as given in the kinase profiling compilation of Christmann-Franck et al. (2016).

Legend:
Assay in all cases: KINOMEscan competition binding
Conditions in all cases: compound 10.0 µM
ACVR1B (human) = ACVR1B (human) (UniProt P36896)
ACVR2B (human) = ACVR2B (human) (UniProt Q13705)
ACVRL1 (human) = ACVRL1 (human) (UniProt P37023)
AKT1 (human) = AKT1 (human) (UniProt P31749)
AURKA (human) = AURKA (human) (UniProt O14965)
CDK18 (human) = CDK18 (human) (UniProt Q07002)
CDKL2 (human) = CDKL2 (human) (UniProt Q92772)
CSNK1G3 (human) = CSNK1G3 (human) (UniProt Q9Y6M4)
DAPK3 (human) = DAPK3 (human) (UniProt O43293)
DDR2 (human) = DDR2 (human) (UniProt Q16832)
DYRK1B (human) = DYRK1B (human) (UniProt Q9Y463)
EIF2AK2 (human) = EIF2AK2 (human) (UniProt P19525)
EPHA3 (human) = EPHA3 (human) (UniProt P29320)
EPHB4 (human) = EPHB4 (human) (UniProt P54760)
FES (human) = FES (human) (UniProt P07332)
FLT4 (human) = FLT4 (human) (UniProt P35916)
[1] = molecular target: JAK1 JH2 pseudokinase (human) (UniProt P23458)
[2] = molecular target: JAK3 JH1 catalytic (human) (UniProt P52333)
JAK3 JH1 catalytic (human), sequence (P52333 whole entry, looked up): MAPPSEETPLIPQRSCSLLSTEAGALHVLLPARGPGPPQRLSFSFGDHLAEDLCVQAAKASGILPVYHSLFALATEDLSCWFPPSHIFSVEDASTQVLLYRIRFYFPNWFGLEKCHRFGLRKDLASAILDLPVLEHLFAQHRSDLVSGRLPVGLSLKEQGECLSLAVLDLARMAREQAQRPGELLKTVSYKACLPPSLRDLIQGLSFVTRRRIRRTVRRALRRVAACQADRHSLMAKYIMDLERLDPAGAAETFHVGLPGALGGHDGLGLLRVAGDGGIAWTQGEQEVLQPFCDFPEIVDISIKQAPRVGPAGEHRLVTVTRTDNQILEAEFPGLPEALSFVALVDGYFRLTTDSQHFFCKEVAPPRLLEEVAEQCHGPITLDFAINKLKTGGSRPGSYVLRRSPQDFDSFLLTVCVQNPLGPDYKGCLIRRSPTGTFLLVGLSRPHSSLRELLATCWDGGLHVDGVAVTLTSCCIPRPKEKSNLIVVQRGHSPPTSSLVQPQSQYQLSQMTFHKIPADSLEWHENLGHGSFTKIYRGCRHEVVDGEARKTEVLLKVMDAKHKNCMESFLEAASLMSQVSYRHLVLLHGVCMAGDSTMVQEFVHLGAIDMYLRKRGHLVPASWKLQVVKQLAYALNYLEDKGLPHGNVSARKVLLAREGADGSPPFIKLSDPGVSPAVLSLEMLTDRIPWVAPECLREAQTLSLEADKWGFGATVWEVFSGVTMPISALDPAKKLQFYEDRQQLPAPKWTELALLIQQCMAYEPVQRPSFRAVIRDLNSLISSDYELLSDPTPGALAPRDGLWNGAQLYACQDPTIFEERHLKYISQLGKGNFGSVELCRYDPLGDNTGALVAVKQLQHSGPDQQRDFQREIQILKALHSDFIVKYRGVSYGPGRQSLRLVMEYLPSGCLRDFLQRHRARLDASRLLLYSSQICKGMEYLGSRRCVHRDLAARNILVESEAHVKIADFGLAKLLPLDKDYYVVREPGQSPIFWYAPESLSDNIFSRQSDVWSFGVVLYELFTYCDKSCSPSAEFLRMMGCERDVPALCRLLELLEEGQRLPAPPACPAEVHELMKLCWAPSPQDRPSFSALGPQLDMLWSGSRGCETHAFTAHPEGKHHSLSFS

MAP3K10 (human) = MAP3K10 (human) (UniProt Q02779)
MAP3K11 (human) = MAP3K11 (human) (UniProt Q16584)
MAPK13 (human) = MAPK13 (human) (UniProt O15264)
MAPK13 (human), sequence (O15264 whole entry, looked up): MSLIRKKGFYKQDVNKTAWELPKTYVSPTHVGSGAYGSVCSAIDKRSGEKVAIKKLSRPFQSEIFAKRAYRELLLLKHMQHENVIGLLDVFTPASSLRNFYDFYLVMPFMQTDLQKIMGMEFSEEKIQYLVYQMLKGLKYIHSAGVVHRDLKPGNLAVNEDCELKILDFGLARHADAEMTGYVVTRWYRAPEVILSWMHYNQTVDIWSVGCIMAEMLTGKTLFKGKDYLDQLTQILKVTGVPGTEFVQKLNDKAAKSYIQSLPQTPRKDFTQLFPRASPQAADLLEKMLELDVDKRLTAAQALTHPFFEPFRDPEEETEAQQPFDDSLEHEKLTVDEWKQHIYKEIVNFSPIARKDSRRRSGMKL

MARK2 (human) = MARK2 (human) (UniProt Q7KZI7)
MKNK1 (human) = MKNK1 (human) (UniProt Q9BUB5)
MYLK4 (human) = MYLK4 (human) (UniProt Q86YV6)
MYO3A (human) = MYO3A (human) (UniProt Q8NEV4)
NLK (human) = NLK (human) (UniProt Q9UBE8)
PAK4 (human) = PAK4 (human) (UniProt O96013)
PAK4 (human), sequence (O96013 whole entry, looked up): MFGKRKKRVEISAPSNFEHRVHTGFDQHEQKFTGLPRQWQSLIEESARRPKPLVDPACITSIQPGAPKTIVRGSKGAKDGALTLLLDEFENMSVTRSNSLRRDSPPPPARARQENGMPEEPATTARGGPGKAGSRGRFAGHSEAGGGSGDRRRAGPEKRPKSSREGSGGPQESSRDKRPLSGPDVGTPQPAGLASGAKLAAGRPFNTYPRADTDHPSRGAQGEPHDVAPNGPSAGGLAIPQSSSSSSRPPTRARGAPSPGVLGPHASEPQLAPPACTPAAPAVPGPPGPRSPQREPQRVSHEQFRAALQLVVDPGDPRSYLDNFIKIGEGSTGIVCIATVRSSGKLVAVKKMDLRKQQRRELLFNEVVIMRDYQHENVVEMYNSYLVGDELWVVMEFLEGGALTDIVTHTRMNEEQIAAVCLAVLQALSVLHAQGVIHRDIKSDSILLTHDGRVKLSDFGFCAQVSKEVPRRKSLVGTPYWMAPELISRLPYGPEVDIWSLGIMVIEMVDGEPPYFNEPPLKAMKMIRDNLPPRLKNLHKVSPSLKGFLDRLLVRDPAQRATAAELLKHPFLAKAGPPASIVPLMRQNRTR

PHKG2 (human) = PHKG2 (human) (UniProt P15735)
PIK3CD (human) = PIK3CD (human) (UniProt O00329)
PIK3CD (human), sequence (O00329 whole entry, looked up): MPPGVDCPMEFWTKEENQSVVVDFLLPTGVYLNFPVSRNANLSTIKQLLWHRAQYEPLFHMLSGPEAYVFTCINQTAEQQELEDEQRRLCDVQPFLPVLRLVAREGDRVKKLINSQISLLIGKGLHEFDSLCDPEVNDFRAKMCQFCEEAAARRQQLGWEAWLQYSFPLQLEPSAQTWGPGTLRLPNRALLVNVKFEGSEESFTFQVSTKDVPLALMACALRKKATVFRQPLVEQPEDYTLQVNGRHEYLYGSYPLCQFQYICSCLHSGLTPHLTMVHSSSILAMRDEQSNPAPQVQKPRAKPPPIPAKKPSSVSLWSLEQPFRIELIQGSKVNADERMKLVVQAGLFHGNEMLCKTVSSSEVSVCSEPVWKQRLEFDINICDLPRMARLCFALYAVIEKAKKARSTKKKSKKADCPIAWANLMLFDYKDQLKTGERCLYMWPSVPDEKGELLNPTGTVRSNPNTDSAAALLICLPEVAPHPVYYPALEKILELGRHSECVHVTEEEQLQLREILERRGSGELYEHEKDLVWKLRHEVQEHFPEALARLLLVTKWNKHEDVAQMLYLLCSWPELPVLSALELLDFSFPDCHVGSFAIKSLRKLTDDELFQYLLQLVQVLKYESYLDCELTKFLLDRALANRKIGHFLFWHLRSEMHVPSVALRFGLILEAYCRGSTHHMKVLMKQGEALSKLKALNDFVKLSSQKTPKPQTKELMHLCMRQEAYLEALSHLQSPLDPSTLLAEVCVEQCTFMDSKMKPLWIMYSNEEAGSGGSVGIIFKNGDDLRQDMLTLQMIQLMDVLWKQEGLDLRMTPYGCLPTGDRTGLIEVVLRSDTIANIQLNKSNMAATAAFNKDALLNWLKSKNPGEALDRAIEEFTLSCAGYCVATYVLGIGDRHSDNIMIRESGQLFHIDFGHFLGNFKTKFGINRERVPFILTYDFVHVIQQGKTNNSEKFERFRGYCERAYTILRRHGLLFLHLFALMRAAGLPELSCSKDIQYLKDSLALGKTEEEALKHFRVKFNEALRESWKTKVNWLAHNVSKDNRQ

PKMYT1 (human) = PKMYT1 (human) (UniProt Q99640)
RPS6KA1 KD1 (human) = RPS6KA1 KD1 (human) (UniProt Q15418)
RPS6KA5 KD1 (human) = RPS6KA5 KD1 (human) (UniProt O75582)
RPS6KA5 KD1 (human), sequence (O75582 whole entry, looked up): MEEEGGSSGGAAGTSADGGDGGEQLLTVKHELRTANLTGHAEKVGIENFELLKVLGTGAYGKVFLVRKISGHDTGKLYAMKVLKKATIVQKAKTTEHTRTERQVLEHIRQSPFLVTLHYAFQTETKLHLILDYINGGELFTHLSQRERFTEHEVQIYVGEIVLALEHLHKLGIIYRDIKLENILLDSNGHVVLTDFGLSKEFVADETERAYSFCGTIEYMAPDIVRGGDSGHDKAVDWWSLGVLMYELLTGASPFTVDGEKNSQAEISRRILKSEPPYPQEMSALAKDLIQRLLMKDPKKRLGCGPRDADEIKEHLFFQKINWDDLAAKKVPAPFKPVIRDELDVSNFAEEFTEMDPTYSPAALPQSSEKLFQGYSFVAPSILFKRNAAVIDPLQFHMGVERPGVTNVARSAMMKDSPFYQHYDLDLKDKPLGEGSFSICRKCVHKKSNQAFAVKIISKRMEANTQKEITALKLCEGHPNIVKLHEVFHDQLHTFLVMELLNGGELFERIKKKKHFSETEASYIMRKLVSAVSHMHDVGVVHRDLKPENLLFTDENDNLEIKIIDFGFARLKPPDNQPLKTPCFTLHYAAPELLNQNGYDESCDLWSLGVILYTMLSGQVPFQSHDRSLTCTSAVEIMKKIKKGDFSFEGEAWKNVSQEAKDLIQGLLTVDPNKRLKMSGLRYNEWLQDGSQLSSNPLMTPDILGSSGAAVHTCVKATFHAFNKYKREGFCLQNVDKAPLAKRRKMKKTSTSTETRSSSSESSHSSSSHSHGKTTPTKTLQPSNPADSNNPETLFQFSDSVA

STK17A (human) = STK17A (human) (UniProt Q9UEE5)
STK3 (human) = STK3 (human) (UniProt Q13188)
STK32C (human) = STK32C (human) (UniProt Q86UX6)
SYK (human) = SYK (human) (UniProt P43405)
TXK (human) = TXK (human) (UniProt P42681)
TXK (human), sequence (P42681 whole entry, looked up): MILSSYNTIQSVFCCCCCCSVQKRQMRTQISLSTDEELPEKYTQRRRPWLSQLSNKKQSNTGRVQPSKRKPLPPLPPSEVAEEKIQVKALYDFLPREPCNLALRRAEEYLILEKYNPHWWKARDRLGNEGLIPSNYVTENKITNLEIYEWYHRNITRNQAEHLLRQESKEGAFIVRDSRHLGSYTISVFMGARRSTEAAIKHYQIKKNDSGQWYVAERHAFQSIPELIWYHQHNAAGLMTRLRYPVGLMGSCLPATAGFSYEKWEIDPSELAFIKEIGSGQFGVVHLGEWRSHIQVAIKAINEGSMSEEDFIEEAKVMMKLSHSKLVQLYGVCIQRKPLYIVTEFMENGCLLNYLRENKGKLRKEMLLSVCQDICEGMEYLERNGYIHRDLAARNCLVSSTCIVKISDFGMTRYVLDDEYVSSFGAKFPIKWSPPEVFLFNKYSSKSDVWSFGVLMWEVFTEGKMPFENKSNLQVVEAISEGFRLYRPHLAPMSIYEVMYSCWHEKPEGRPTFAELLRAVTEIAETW

TYRO3 (human) = TYRO3 (human) (UniProt Q06418)
WEE2 (human) = WEE2 (human) (UniProt P0C1S8)
AURKC (human) = AURKC (human) (UniProt Q9UQB9)

ACVR2B (human), sequence (Q13705 whole entry, looked up): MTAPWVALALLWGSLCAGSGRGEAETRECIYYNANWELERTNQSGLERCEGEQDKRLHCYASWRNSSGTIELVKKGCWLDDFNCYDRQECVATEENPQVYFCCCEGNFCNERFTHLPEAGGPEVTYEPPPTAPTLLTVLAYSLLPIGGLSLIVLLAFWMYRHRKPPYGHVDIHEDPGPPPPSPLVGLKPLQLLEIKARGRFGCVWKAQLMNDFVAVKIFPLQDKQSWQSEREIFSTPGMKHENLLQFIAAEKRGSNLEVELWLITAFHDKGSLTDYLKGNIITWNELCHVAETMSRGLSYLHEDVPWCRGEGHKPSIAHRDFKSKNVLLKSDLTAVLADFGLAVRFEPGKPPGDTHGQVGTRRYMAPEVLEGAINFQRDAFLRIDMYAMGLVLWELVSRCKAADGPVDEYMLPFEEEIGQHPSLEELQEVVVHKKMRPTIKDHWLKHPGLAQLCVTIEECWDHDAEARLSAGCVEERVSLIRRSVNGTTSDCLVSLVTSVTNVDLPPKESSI

Row | SMILES | kinase still bound, per cent of control (ACVR1B (human)) [%] | kinase still bound, per cent of control (ACVR2B (human)) [%] | kinase still bound, per cent of control (ACVRL1 (human)) [%] | kinase still bound, per cent of control (AKT1 (human)) [%] | kinase still bound, per cent of control (AURKA (human)) [%] | kinase still bound, per cent of control (CDK18 (human)) [%] | kinase still bound, per cent of control (CDKL2 (human)) [%] | kinase still bound, per cent of control (CSNK1G3 (human)) [%] | kinase still bound, per cent of control (DAPK3 (human)) [%] | kinase still bound, per cent of control (DDR2 (human)) [%] | kinase still bound, per cent of control (DYRK1B (human)) [%] | kinase still bound, per cent of control (EIF2AK2 (human)) [%] | kinase still bound, per cent of control (EPHA3 (human)) [%] | kinase still bound, per cent of control (EPHB4 (human)) [%] | kinase still bound, per cent of control (FES (human)) [%] | kinase still bound, per cent of control (FLT4 (human)) [%] | kinase still bound, per cent of control [1] [%] | kinase still bound, per cent of control [2] [%] | kinase still bound, per cent of control (MAP3K10 (human)) [%] | kinase still bound, per cent of control (MAP3K11 (human)) [%] | other results
1 | CCCS(=O)(=O)Nc1ccc(F)c(C(=O)c2c[nH]c3ncc(-c4ccc(Cl)cc4)cc23)c1F | 78 | 27 | 65 | 100 | 81 | 100 | 49 | 100 | 95 | 35 | 100 | 81 | 44 | 100 | 41 | 82 | 100 | 83 | 73 | 81 | kinase still bound, per cent of control (MAPK13 (human)): 100%; kinase still bound, per cent of control (MARK2 (human)): 69%; kinase still bound, per cent of control (MKNK1 (human)): 70%; kinase still bound, per cent of control (MYLK4 (human)): 0.45%; kinase still bound, per cent of control (MYO3A (human)): 57%; kinase still bound, per cent of control (NLK (human)): 81%; kinase still bound, per cent of control (PAK4 (human)): 86%; kinase still bound, per cent of control (PHKG2 (human)): 100%; kinase still bound, per cent of control (PIK3CD (human)): 89%; kinase still bound, per cent of control (PKMYT1 (human)): 100%; kinase still bound, per cent of control (RPS6KA1 KD1 (human)): 57%; kinase still bound, per cent of control (RPS6KA5 KD1 (human)): 98%; kinase still bound, per cent of control (STK17A (human)): 62%; kinase still bound, per cent of control (STK3 (human)): 1.9%; kinase still bound, per cent of control (STK32C (human)): 100%; kinase still bound, per cent of control (SYK (human)): 66%; kinase still bound, per cent of control (TXK (human)): 59%; kinase still bound, per cent of control (TYRO3 (human)): 100%; kinase still bound, per cent of control (WEE2 (human)): 100%
2 | CCC(=O)N1CCN(c2ccc(-n3c(=O)ccc4cnc5ccc(-c6cnc7ccccc7c6)cc5c43)cc2C(F)(F)F)CC1 | 45 | 42 | 83 | 91 | 100 | 97 | 58 | 100 | 82 | 100 | 87 | 88 | 70 | 85 | 41 | 74 | 76 | 100 | 99 | 69 | kinase still bound, per cent of control (AURKC (human)): 91%; kinase still bound, per cent of control (MAPK13 (human)): 39%; kinase still bound, per cent of control (MKNK1 (human)): 44%; kinase still bound, per cent of control (MYLK4 (human)): 83%; kinase still bound, per cent of control (MYO3A (human)): 100%; kinase still bound, per cent of control (NLK (human)): 25%; kinase still bound, per cent of control (PAK4 (human)): 100%; kinase still bound, per cent of control (PHKG2 (human)): 100%; kinase still bound, per cent of control (PIK3CD (human)): 51%; kinase still bound, per cent of control (PKMYT1 (human)): 52%; kinase still bound, per cent of control (RPS6KA1 KD1 (human)): 68%; kinase still bound, per cent of control (RPS6KA5 KD1 (human)): 100%; kinase still bound, per cent of control (STK17A (human)): 93%; kinase still bound, per cent of control (STK3 (human)): 24%; kinase still bound, per cent of control (STK32C (human)): 100%; kinase still bound, per cent of control (SYK (human)): 78%; kinase still bound, per cent of control (TXK (human)): 54%; kinase still bound, per cent of control (TYRO3 (human)): 31%; kinase still bound, per cent of control (WEE2 (human)): 100%
